SMILES strings stand for the structures.

Regarding `CCOC(=O)C(C)=Cc1cc(F)c(F)c(F)c1`, the melting point stood at 54 °C.

Compound `CN(C)S(=O)(=O)c1cccc2cccc(O)c12` returned a melting point of 95 °C.

As for `CSc1cc2c(cc1C(F)(F)F)N(C(=O)Nc1cccc(C(=O)NCCN3CCCCC3)c1)CC2`, the melting point fell in the range of 79 to 81 °C.

`O=C(c1cccnc1)N1CCC(c2ccc(Br)cc2)=N1` returned a melting point of 117 to 119 °C.

Take `CCOC(=O)c1ncn2c(-c3cccc(C(F)(F)F)c3)ccnc12`: the melting point lay within 232 to 234 °C.

For `COC(=O)Nc1cccc(-c2ccc3nncn3n2)c1`, the melting point was in the range of 210 to 212 °C.

In turn, `OCC(O)Cn1cnc2c(Cl)nc3ccccc3c21` (stereo not given) gave a melting point of 223 to 225 °C.

For `COCCOC(=O)CS(=O)C(C)c1ccc(-c2ccccc2F)cc1` (stereo not given), the melting point was 65 to 67 °C.

In turn, `CCOC(=O)c1nc2ccc(OC)cc2nc1SCC` displayed a melting point of 70 °C.

On to `CCN(CC)C(=O)C(C)(C)C(=O)O`, for which the melting point lay in the range of 110 to 112 °C.

Turning to `CCCCCCCCN(CCCCCCCC)c1nc(Nc2ccc3nc(S)sc3c2)nc(N(CCCCCCCC)CCCCCCCC)n1`, the melting point is 81 to 83 °C.

Turning to `CCOC(=O)c1ncn(-c2ccn(C)n2)c1N`, the melting point fell in the range of 168 to 170 °C.

`CCc1c(N)nc(-c2ccc(C(F)(F)F)cc2)nc1C(=O)OC` displayed a melting point of 123 to 124 °C.

`O=c1c2ccc(O)cc2oc2c(O)c(O)ccc12` showed a melting point greater than 300 °C.

As to `CC(C)c1noc(-c2c(Cl)ccc(C(=O)c3cnn(C)c3O)c2Cl)n1`, the melting point was 138 to 144 °C.

Regarding `CNC(=O)C1(C)NCCc2c1n(F)c1ccccc21` (stereo not given), the melting point was determined as 238 °C.

The compound `O=S1(=O)N=C(NC2(CO)CCCC2)Nc2cc(Cl)sc21` came in with a melting point of 213 to 214 °C.

With `CCOC(=O)Cc1ccc2c(c1)C(=O)c1cc(Cl)ccc1CS2`, the melting point is 68 to 71 °C.

`CC(C)c1c(CCC=O)c2c(c(C(C)C)c1OCc1ccccc1)CC(C)(C)O2` gave a melting point of 120 to 122 °C.

Turning to `O=C(CCl)c1cc2c(s1)SCCc1cc(=O)n(-c3ccc(Cl)cc3)nc1-2`, the melting point lay in the range of 178 to 180 °C.

Turning to `CCCCCCOc1ccc(C=CC(C)=CC=CC(=O)O)cc1`, the melting point was 181 to 185 °C.

Compound `CCCCCCCCCCC(O)C(O)CCC(O)C1CCC(=O)O1` (stereo not given) registered a melting point of 99 to 100 °C.

Regarding `O=C(C1CCN(Cc2ccccc2)CC1)N1CCc2ccccc2C1`, the melting point lay in the range of 98 to 100 °C.

The compound `COc1c(C)cc(-c2nn(C(C)c3oc4ccccc4c(=O)c3-c3cccc(F)c3)c3ncnc(N)c23)cc1C` (stereo not given) had a melting point of 234 to 236 °C.

Compound `NC(=CC(=O)c1ccncc1)C1CC1` displayed a melting point of 124 to 125 °C.

The compound `COc1ccc(CS(=O)(=O)c2cc3ccccc3oc2=O)cc1` came in with a melting point of 194 to 195 °C.

The compound `CCCc1sc(-c2ccccc2)nc1OC(=O)Nc1ccccc1` returned a melting point of 104 to 105 °C.

`Cc1csc2nc(Sc3ccccc3NC(=O)N[C@@H](Cc3ccc(NC(=O)c4c(Cl)cncc4Cl)cc3)C(=O)O)cnc12` registered a melting point of 193 °C.

In the case of `COC(=O)c1ccccc1Oc1ccc(C(F)(F)F)cc1[N+](=O)[O-]`, the melting point lay within 69 to 70 °C.

Compound `NC(=O)c1nc(-c2cccc(O)c2)nc2c1[nH]c(=O)n2C1CCCC1` came in with a melting point of 360 to 361 °C.

`CC(=O)c1cc2c(C(C)=O)c(OCC3CO3)ccc2o1` (stereo not given): the melting point came to 114 °C.

On to `CC(C(=O)Nc1ccc2[nH]c(=O)oc2c1)N1CCC(Cc2ccccc2)CC1` (stereo not given), for which the melting point was in the range of 116 to 118 °C.

Take `Fc1ccc(Nc2ccccc2C=C(Br)Br)cc1`: the melting point fell in the range of 75 to 77 °C.

Compound `CC(C)(C)c1cc(CCc2cc(CO)cc(CCc3cc(C(C)(C)C)cc(C(C)(C)C)c3)c2)cc(C(C)(C)C)c1` had a melting point of 101 °C.

With `CN(c1n[nH]c2ncnc(Nc3cccc(Cl)c3)c12)C1CCCCC1`, the melting point lay within 188 to 190 °C.

In turn, `CC(=O)Nc1cc(F)ccc1SCC#N` gave a melting point of 113 to 115 °C.

On to `COC(=O)COc1cccc2c(CCS(=O)CCc3ccccc3)c(C)oc12` (stereo not given), for which the melting point was 77 to 78 °C.

Turning to `CC(C(=O)O)c1ccc(-n2cccn2)c(Cl)c1` (stereo not given), the melting point was in the range of 83 to 85 °C.

`CC(=O)n1c2ccccc2c2nc3ccccc3cc21` gave a melting point of 163 to 165 °C.

The compound `CCCCCC[C@H](C)Oc1ccc(-c2ccc(O)c([N+](=O)[O-])c2)cc1` returned a melting point of 40 °C.

As to `CC1CC2C3CCC4CC(O)CCC4(C)C3C(=O)CC2(C)C1C1(C)OCCO1` (stereo not given), the melting point lay in the range of 122 to 124 °C.

Take `O=C(OCc1cc(-c2ccccc2)c(=O)n2c1-c1sccc1CC2)N1CCOCC1`: the melting point lay within 163 to 164 °C.

In the case of `COc1ccc2c(c1)CCC1(C)CC(=O)NN=C21` (stereo not given), the melting point amounted to 215 °C.

`CCOC(=O)c1cn(C2CC2)c2nc(N3CCC(NC)C3)c(F)cc2c1=O` (stereo not given) yielded a melting point of 164 to 166 °C.

On to `Cc1nc(-c2cnc3[nH]cc(C(=O)N[C@@H](C(=O)N4CC(C#N)C4)C4CC4)c3n2)cn1-c1ccccc1`, for which the melting point is 175 to 179 °C.

Compound `CC(C)Oc1ccccc1OCCCN1CCC(C(O)(c2ccc(F)cc2)c2ccc(F)cc2)CC1` registered a melting point of 75 to 79 °C.

`N=c1[nH]c(=N)c2ncn(C3OC(CO)C(O)C3O)c2c(=N)[nH]1` (stereo not given) returned a melting point greater than 200 °C.

Take `CS(=O)(=O)c1ccc(-c2cc(CO[N+](=O)[O-])nn2Cc2ccccc2)cc1`: the melting point lay within 94 to 96 °C.

Turning to `Cc1cc2ccccn2c1C(=O)C1CCc2nc[nH]c2C1` (stereo not given), the melting point is 260 to 264 °C.

Consider `Cc1noc(-c2cc3c(OC[C@@H](O)CN4CCC(c5ccc6ccccc6c5)CC4)cccc3s2)n1`, for which the melting point lay in the range of 180 to 182 °C.

The compound `C#Cc1ccnc(-c2cc(N)c(Br)cc2[N+](=O)[O-])c1` came in with a melting point of 226 to 228 °C.

`Cc1cc2cc(C#N)c(Cl)nc2s1`: the melting point was in the range of 171 to 173 °C.

In the case of `CNC(=S)N1CCc2[nH]cnc2C1c1ccccc1` (stereo not given), the melting point came to 228 °C.

Compound `CNC1=NN(c2cccc(C(F)(F)F)c2)CC1` had a melting point of 93.1 °C.

Consider `CC(=O)NC1C(Oc2nc[nH]c2C(N)=O)OC(COC(C)=O)C(OC(C)=O)C1OC(C)=O` (stereo not given), for which the melting point was 133 to 135 °C.

`CON(C)c1nc(C)cc(O)n1` yielded a melting point of 128 to 129 °C.

In the case of `Cc1c(Cc2cc(Cl)cc(Cl)c2)c(C(C)C)nn1CCO`, the melting point lay within 77 to 78 °C.

`CCC(CN1CCCC1)C(=O)c1cc(-c2ccccc2)no1` (stereo not given): the melting point was in the range of 68 to 69 °C.

In the case of `CCON=C(CC)C1=C(O)CC(c2ccc(NC(=O)c3ccccc3C)cc2)CC1=O` (stereo not given), the melting point was 139 to 140 °C.

Take `CNCC1Cc2cc(Cl)cc(-c3cccc(OC)c3OC)c2O1` (stereo not given): the melting point fell in the range of 105 to 107 °C.

Regarding `COc1cc2ncnc(N3CCCc4cc(C)ccc43)c2cc1OC`, the melting point is 147 to 148 °C.

As for `Cc1cc(-c2nnc(C(C)(C)C)o2)ccc1N=CN(C)C`, the melting point was 79 to 80 °C.

As to `O=C1CCN(Cc2ccccc2[N+](=O)[O-])CC1C(c1ccc(F)cc1)c1ccc(F)cc1` (stereo not given), the melting point was 151 to 152 °C.

The compound `CSc1nc(N2CCc3ccccc3CC2)c(C#N)c2nncn12` came in with a melting point greater than 200 °C.

Turning to `COc1ccc(C(=O)Nc2ccccc2)cc1NS(=O)(=O)c1cccc2cccnc12`, the melting point was in the range of 187 to 188 °C.

In turn, `Nc1nn(Cc2ccccc2)c2nc(N3CCOCC3)cc(-c3ccccc3)c12` had a melting point of 147 to 150 °C.

In turn, `CC(C)Oc1nccc(-c2c(-c3ccc(F)cc3)ncn2C2CCNCC2)n1` displayed a melting point of 121 to 122 °C.

With `COc1ccc(-c2cnc(-c3ccc(F)cc3)nc2-c2ccc(OC)cc2)cc1`, the melting point is 129 to 130 °C.

Consider `CN1C(=O)C(F)ON=C(c2ccccc2)c2cc(Cl)ccc21` (stereo not given), for which the melting point was in the range of 218 to 220 °C.

`Nc1cc([N+](=O)[O-])c2c(c1N)CCCC2` displayed a melting point of 181 to 182 °C.

In turn, `Cc1cc2c3c(c1)C1(CC(=O)NC1=O)C(=O)N3CCC2` (stereo not given) registered a melting point of 165 to 167 °C.

As to `C=C1C(O)C(CO)OC1n1cc(I)c(=O)[nH]c1=O` (stereo not given), the melting point fell in the range of 169 to 172 °C.

`Oc1ccc(O)c2c1CC=CC2` came in with a melting point of 208 to 211 °C.

Take `COc1cc(C)c(CCCCCCCCCCCCCCCCCCCCCC(=O)O)c(O)c1OC`: the melting point was in the range of 67 to 68 °C.

With `COC(=O)C#Cc1c(C#N)nn(-c2c(Cl)cc(C(F)(F)F)cc2Cl)c1N`, the melting point is 201 to 202 °C.

The compound `CCOC(=O)c1cc(CC)sc1Nc1cc(F)ccc1N` gave a melting point of 100 to 101 °C.

`O=C1NCCc2ccc(OCCCCN3CCN(c4cccc5c4OCCC5)CC3)nc2N1` had a melting point of 154 to 156 °C.

`CCOc1ccc(-n2c(C(F)(F)F)nn(C)c2=S)cc1` registered a melting point of 93 to 95 °C.

`Oc1ccc(Nc2nc(NCc3ccco3)nc(N3CCOCC3)n2)cc1` had a melting point of 163 to 165 °C.

The compound `Cc1cc(NC(=O)c2cc(F)cc(N(C3CN(C(c4ccc(Cl)cc4)c4ccc(Cl)cc4)C3)S(C)(=O)=O)c2)no1` yielded a melting point of 222 to 224 °C.

In the case of `CCOC1=NS(=O)(=O)C(C#N)=C1OCC`, the melting point was 147 to 148 °C.

In turn, `COc1ccc(-c2cc(C(=O)O)c(=O)n(CC3CC3)n2)cc1` came in with a melting point of 154 to 155 °C.

In turn, `CN1C(=O)NC(=O)C1=Cc1cc(OCCCS(=O)(=O)c2ccccc2)ccc1[N+](=O)[O-]` yielded a melting point of 147 to 158 °C.

With `C=CCn1c(=O)c(C(=O)O)c(NC(=O)CCl)c2cccnc21`, the melting point lay within 145 to 148 °C.

Regarding `CNS(=O)(=O)c1ccccc1Nc1nc(Nc2ccc3c(c2)CCCC(=O)N3C)ncc1Cl`, the melting point lay within 175 to 177 °C.

`c1cncc(CC[C@H]2CNCCN2)c1` gave a melting point of 104 to 110 °C.

`CCSc1nccn1N1CCN(c2ccc(OC)cc2)CC1` came in with a melting point of 112 °C.

For `CCOP(=O)(/C=C/c1cn(-c2ccccc2)nc1OCc1ccc(OCc2nc(-c3ccc(C)c(C(=O)O)c3)oc2CC)c(OC)c1)OCC`, the melting point was 165 to 166 °C.

As to `COC(=O)c1cc(C(=O)CBr)c(OC(C)=O)cc1NC(=O)C(F)(F)F`, the melting point fell in the range of 260 to 261 °C.

With `COc1ccc(C(=O)C23CC4CC(C2)CC(C(=O)c2ccc(OC)cc2)(C4)C3)cc1`, the melting point fell in the range of 148 to 150 °C.

For orientation: melting point means the temperature of the solid-liquid transition.
